Target: T1, Ubiquitin carboxyl-terminal hydrolase 30 (Homo sapiens, UniProt Q70CQ3)
T1 sequence (Q70CQ3 whole entry): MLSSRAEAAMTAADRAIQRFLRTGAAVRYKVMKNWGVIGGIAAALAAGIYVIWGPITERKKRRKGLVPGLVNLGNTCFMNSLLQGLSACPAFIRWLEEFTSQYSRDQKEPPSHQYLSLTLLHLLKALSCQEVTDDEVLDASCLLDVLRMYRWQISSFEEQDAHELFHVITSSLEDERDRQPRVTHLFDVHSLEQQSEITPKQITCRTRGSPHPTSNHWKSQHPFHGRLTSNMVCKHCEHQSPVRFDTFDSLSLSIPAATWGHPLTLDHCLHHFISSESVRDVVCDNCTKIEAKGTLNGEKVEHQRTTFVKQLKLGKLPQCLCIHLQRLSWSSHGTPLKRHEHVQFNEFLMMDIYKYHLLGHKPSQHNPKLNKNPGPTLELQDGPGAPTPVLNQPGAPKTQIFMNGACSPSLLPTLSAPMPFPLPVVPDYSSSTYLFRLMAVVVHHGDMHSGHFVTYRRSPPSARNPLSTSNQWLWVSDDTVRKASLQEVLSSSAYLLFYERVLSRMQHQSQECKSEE
Experiment: Biochemical Fluorescence Intensity Kinetic Assay/Biochemical Fluorescence Intensity Assay
Procedure: Buffer was optimised for optimal temperature, pH, reducing agent, salts, time of incubation, and detergent. […] Reactions were incubated at room temperature and read every 2 min for 120 min. Readings were performed on a Pherastar Plus (BMG Labtech). […] A typical 8-point dilution series would be 100, 30, 10, 3, 1, 0.3, 0.1, 0.03 μM final. […] Either 1 μl of 50% DMSO or diluted compound was added to the plate. USP30 was diluted in reaction buffer (40 mM Tris, pH 7.5, 0.005% Tween 20, 0.5 mg/ml BSA, 5 mM beta-mercaptoethanol) to the equivalent of 0.001 μl/well and 10 μl of diluted USP30 was added to the compound. Enzyme and compound were incubated for 30 min at room temp. […] Reactions were read immediately after addition of substrate and following a 2 h incubation at room temperature.

CO[C@@H]1CN(C#N)C[C@H]1N(C)C(=O)c1ccc(-c2cnn(C)c2)cc1 [US10689345, Example 178]
IC50: in the range around 550 nM
